No end group written: not given here.
How the values were obtained:
Assay type in all cases: cell-based, human
PBMC = test: ELISpot IFN-γ assay with PBMC of Ad5-PfCA immunized volunteers (Example 1); details: for IFN-γ ELISpot activity of individual 15-mer peptide: threshold 40 SFC/million; for ELISpot activity of 1 month PBMC: v005, PBMC 1 month
Protocol: In order to assess the pools for their ability to induce T-cell responses, specifically CD 8^+ responses, PBMC, 1 month post immunization were used, from the five volunteers in Table 1, in ELISpot assays. In these studies, IFN-γ activity was measured in response to exposure to the peptide pools. The assays were conducted essentially as described by Wang, et al., Proc. Natl. Acad. Sci. (U.S.A.), 98: 10817-22.
The stimulation of circulating antigen-specific T cell lymphocytes was evaluated by measurement of γ-IFN induction by ELISPOT. The ELISpot assay was conducted using thawed cryopreserved PBMC at 200 K cells per well. Pre-challenge cells were taken at day 21 and day 22 post AdPfCA vaccination. Cells were suspended in […] complete medium and were stimulated with AMA1 peptides suspended in […] of complete medium. Peptide concentrations used in assays was 10 μg/ml of each peptide tested. Cultures were incubated for 36 h at 37° C., 5% CO2. Depending on availability of cells, each PBMC sample was assayed in duplicate, triplicate, or quadruplicate and the number of IFN-γ-secreting cells recognized as spot-forming cells (SFC) was enumerated using an automated ELISpot reader. In duplicate assays, all values were used in analysis. For triplicate or quadruplicate assays, outliers were rejected if any single value contributed more than 50% of the standard deviation of the triplicate (or quadruplicate) and if its value was three-fold greater or less than the average of the remaining two (or three) values. The mean spot forming cells (SFCs) obtained in negative control wells were subtracted from the value of each test well from the same sample. Negative counts generated by this background subtraction were converted to zero. The mean spot number of the test sample was then calculated and expressed as SFC/million PBMCs. Values obtained with pre-vaccinated samples were subtracted from the post-vaccination values.

[1] = tested on: CD4+ and CD8+ T cells of PBMC; test: Intracellular cytokine staining (ICS) of CD4+ and CD8+ T cells; details: for CD8^+ T cell IFN-γ response in ICS: HLA-matched volunteers, FIG. 1 upper panel; for multifunctional CD8^+ T cell responses in ICS: v008 and v012, any two of IFN-γ, IL-2, TNF-α, FIG. 1 lower panel
Protocol: ICS was performed on PBMCs with costimulatory antibodies anti-CD28 and […] (obtained from BD Bioscience™, San Jose, Calif.). The peptides were used at the same concentrations as in ELISpot assays. Stimulants were added t cells and incubated at 37° C. with 5% CO2 for 2 hr. Golgi Plug™ (Brefeldin A) (BD Bioscience™, San Jose, Calif.) was added at a final concentration of 0.6 μL/mL and incubated at 37° C. with 5% CO2 overnight. Cells were stained with anti-CD3 (Alexa Fluor 700™), anti-CD4 (PerCP™), and anti-CD8 Pacific Blue™ (obtained from BD Bioscience™, San Jose, Calif.). and 1 μg/mL of live/dead fixable blue dye, incubated and washed. Cells were permeabilized with Cytofix/Cytoperm™ solution (obtained from BD Bioscience™, San Jose, Calif.), incubated and washed. Cells were stained intracellularly with anti-CD3 ([…]), anti-CD4 (PerCP™), and anti-CD8 Pacific Blue™, anti-IFN-γ FITC, anti-TNF PE, and anti-IL2 APC, incubated and washed. Cells were resuspended and the entire available sample was acquired by flowcytometry. The gating strategy included progressively measuring total cells; viable cells only; lymphocytes; T cells; CD4^+ CD8^+ populations; and a specific cell type expressing a specific cytokine. Histograms were used to determine the total production of IFN-γ, IL2, and TNF for the CD4^+ and CD8^+ populations. Boolean gates were used to determine cells producing combinations of cytokines.
In these studies, T cells containing IFN-γ, IL2, or TNFα, were gated into different subsets: IFN-γ+, IL2+, TNFα−; IFN-γ+, IL2-, TNFα+; IFN-γ+, IL2+, TNFα+; or IFN-γ+, IL2−, TNFα− T cells, and stimulated with the predicted epitopes and their parent peptide pool. The frequency of CD8^+ T cells producing total IFN-γ was far greater than CD4^+ T cell responses (FIG. 1, upper panel), which were extremely low.

[2] = tested on: CD8+ or CD4+ T-cell depleted PBMC; test: ELISpot IFN-γ assay after CD8+ or CD4+ T-cell depletion (Example 2, Table 6); details: for CD4^+ depletion, test: CD4+ depleted; for CD8^+ Depletion, test: CD8+ depleted
Protocol: PBMC population depletion was conducted using anti-human CD4+ and anti-CD8^+ coated Dynabeads™ M-450 (Dynal, Great Neck, N.Y.) following the manufacturer's instructions. Mock depletion was done with Dynabeads coated with Sheep anti-mouse IgG. Flow cytometry confirmed that T-cell subset depletions were >99% in all experiments. The data is presented as the % effect (decrease) in activity after T cell subset depletion. […]
The results of this study, summarized in Table 6, identified other CD8^+ epitopes, associated specific HLA class I genes.

[3] = tested on: CD4+ or CD8+ T cell depleted PBMC; test: ELISpot IFN-γ assay after CD4+ or CD8+ T cell depletion of PBMC (Example 1); parameters: % change of ELISpot activity, CD8 dep vs control: concentration or dose not given beside the values; ELISpot IFN-γ activity, Control dep / ELISpot IFN-γ activity, CD4 dep / ELISpot IFN-γ activity, CD8 dep: unit not given here; details: for ELISpot IFN-γ activity, CD4 dep: CD4+ T cells depleted; for ELISpot IFN-γ activity, CD8 dep: CD8+ T cells depleted; for ELISpot IFN-γ activity, Control dep: mock depletion
Protocol: PBMC population depletion was conducted using anti-human CD4+ and anti-CD8^+ coated Dynabeads™ M-450 (Dynal, Great Neck, N.Y.) following the manufacturer's instructions. Mock depletion was done with Dynabeads coated with Sheep anti-mouse IgG. Flow cytometry confirmed that T-cell subset depletions were >99% in all experiments. The data is presented as the % effect (decrease) in activity after T cell subset depletion.
Finally, we wanted to confirm that indeed the responses to AMA14e were mediated by CD8^+ T cells. We compared activity to AMA14e in ELISpot depletion assays and ICS CD4^+ or CD8^+ T cell IFN-γ assays with Ap1-12 and recombinant AMA1 protein with v001 and v005 (FIG. 3). CD8^+ T cell depletion reduced ELISpot activity to AMA14e by about 85% in v001 and 95% in v005.

[4] = Vol. 1550-10, 12 wk post challenge
[5] = Vol. 1550-11, 4 wk post challenge

CEIFNVKPTCLINNS [Ap8-12]
IFN-γ ELISpot activity of individual 15-mer peptide (PBMC; Volunteer 005): 127 SFC/10^6

CNKLVFELSASDQPK [Ap7-7]
IFN-γ ELISpot activity of individual 15-mer peptide (PBMC; Volunteer 001): 77 SFC/10^6

EDIPHVNEFPAIDLF [Ap7-3]
IFN-γ ELISpot activity of individual 15-mer peptide (PBMC; Volunteer 001): 139 SFC/10^6

EMRHFYKDNKYVKNL [Ap4-11]
IFN-γ ELISpot activity of individual 15-mer peptide (PBMC; Volunteer 005): 65 SFC/10^6
ELISpot activity of 1 month PBMC (PBMC): 65 sfc/m

ETQKCEIFNV (listed as Plasmodium falciparum) [Epitope 10]
CD8^+ T cell IFN-γ response in ICS [1]: very weak CD8^+ IFN-γ responses
multifunctional CD8^+ T cell responses in ICS [1]: did not appear to induce multifunctional responses

ETQKCEIFNVKPTCL [Ap8-11]
IFN-γ ELISpot activity of individual 15-mer peptide (PBMC; Volunteer 001): 48 SFC/10^6
IFN-γ ELISpot activity of individual 15-mer peptide (PBMC; Volunteer 005): 218 SFC/10^6
IFN-γ ELISpot activity of individual 15-mer peptide (PBMC; Volunteer 008): 48 SFC/10^6

FKADRYKSHGKGYNW [Ap8-6]
IFN-γ ELISpot activity of individual 15-mer peptide (PBMC; Volunteer 012): 143 SFC/10^6
CD4^+ depletion % change [2, 4]: 26%
CD8^+ Depletion % change [2, 4]: 100%
CD4^+ depletion, test [2, 4]: 81 SFC/10^6
CD8^+ Depletion, test [2, 4]: 0 SFC/10^6
CD4^+ depletion, control [2, 4]: 109 SFC/10^6
CD8^+ Depletion, control [2, 4]: 109 SFC/10^6

HPKEYEYPL (listed as Plasmodium falciparum) [Epitope 9]
CD8^+ T cell IFN-γ response in ICS [1]: equal or more CD8^+ IFN-γ than the parent peptide pool

HVNEFPAIDLFECNK [Ap7-4]
IFN-γ ELISpot activity of individual 15-mer peptide (PBMC; Volunteer 001): 96 SFC/10^6

INEHREHPKEYEYPL [Ap1-11]
IFN-γ ELISpot activity of individual 15-mer peptide (PBMC; Volunteer 002): 180 SFC/10^6
IFN-γ ELISpot activity of individual 15-mer peptide (PBMC; Volunteer 005): 322 SFC/10^6
% change of ELISpot activity, CD4 dep vs control ([3]; V002): −18%
% change of ELISpot activity, CD8 dep vs control ([3]; V002): −94%
ELISpot IFN-γ activity, CD4 dep ([3]; V002): 152
ELISpot IFN-γ activity, CD8 dep ([3]; V002): 11
ELISpot IFN-γ activity, Control dep ([3]; V002): 185
% change of ELISpot activity, CD4 dep vs control ([3]; V005): −37%
% change of ELISpot activity, CD8 dep vs control ([3]; V005): −100%
ELISpot IFN-γ activity, CD4 dep ([3]; V005): 145
ELISpot IFN-γ activity, CD8 dep ([3]; V005): 0
ELISpot IFN-γ activity, Control dep ([3]; V005): 233

KEYEYPLHQEHTYQQ [Ap1-13]
IFN-γ ELISpot activity of individual 15-mer peptide (PBMC; Volunteer 001): 42 SFC/10^6
% change of ELISpot activity, CD4 dep vs control ([3]; V001): +133%
% change of ELISpot activity, CD8 dep vs control ([3]; V001): −76%
ELISpot IFN-γ activity, CD4 dep ([3]; V001): 168
ELISpot IFN-γ activity, CD8 dep ([3]; V001): 17
ELISpot IFN-γ activity, Control dep ([3]; V001): 72

LLSAFEFTYMINFGR [Ap1-3]
IFN-γ ELISpot activity of individual 15-mer peptide (PBMC; Volunteer 001): 48 SFC/10^6
% change of ELISpot activity, CD4 dep vs control ([3]; V001): −32%
% change of ELISpot activity, CD8 dep vs control ([3]; V001): −56%
ELISpot IFN-γ activity, CD4 dep ([3]; V001): 58
ELISpot IFN-γ activity, CD8 dep ([3]; V001): 37
ELISpot IFN-γ activity, Control dep ([3]; V001): 85

LMSPMTLDEMRHFYK [Ap4-9]
IFN-γ ELISpot activity of individual 15-mer peptide (PBMC; Volunteer 002): 189 SFC/10^6
IFN-γ ELISpot activity of individual 15-mer peptide (PBMC; Volunteer 005): 395 SFC/10^6
% change of ELISpot activity, CD4 dep vs control ([3]; V005): −32%
% change of ELISpot activity, CD8 dep vs control ([3]; V005): −100%
ELISpot IFN-γ activity, CD4 dep ([3]; V005): 137
ELISpot IFN-γ activity, CD8 dep ([3]; V005): 1
ELISpot IFN-γ activity, Control dep ([3]; V005): 204

MTLDEMRHFYKDNKY [Ap4-10]
IFN-γ ELISpot activity of individual 15-mer peptide (PBMC; Volunteer 002): 82 SFC/10^6
IFN-γ ELISpot activity of individual 15-mer peptide (PBMC; Volunteer 005): 118 SFC/10^6

NEFPAIDLF (listed as Plasmodium falciparum) [Epitope 2]
CD8^+ T cell IFN-γ response in ICS [1]: equal or more CD8^+ IFN-γ than the parent peptide pool

NEVVVKEEY [Epitope 1, NEVVVKEEY]
CD8^+ T cell IFN-γ response in ICS [1]: equal or more CD8^+ IFN-γ than the parent peptide pool

NQYLKDGGFAFPPTE [Ap4-5]
IFN-γ ELISpot activity of individual 15-mer peptide (PBMC; Volunteer 005): 50 SFC/10^6
ELISpot activity of 1 month PBMC (PBMC): 50 sfc/m

NSTCRFFVCK (listed as Plasmodium falciparum)
CD4^+ depletion % change [2, 5]: 26%
CD8^+ Depletion % change [2, 5]: 100%
CD4^+ depletion, test [2, 5]: 153 SFC/10^6
CD8^+ Depletion, test [2, 5]: 0 SFC/10^6
CD4^+ depletion, control [2, 5]: 207 SFC/10^6
CD8^+ Depletion, control [2, 5]: 207 SFC/10^6
T-cell response in ELISpot ([2]; primarily attributable to CD8^+ T-cell response): stimulated a significant T-cell response

QNSDVYRPINEHREH [Ap1-9]
IFN-γ ELISpot activity of individual 15-mer peptide (PBMC; Volunteer 001): 48 SFC/10^6

RYKSHGKGY (listed as Plasmodium falciparum) [Epitope 14]
CD8^+ T cell IFN-γ response in ICS [1]: very weak CD8^+ IFN-γ responses
multifunctional CD8^+ T cell responses in ICS [1]: did not appear to induce multifunctional responses

RYKSHGKGYNWGNYN [Ap8-7]
CD4^+ depletion % change [2, 4]: 26%
CD8^+ Depletion % change [2, 4]: 99%
CD4^+ depletion, test [2, 4]: 54 SFC/10^6
CD8^+ Depletion, test [2, 4]: 1 SFC/10^6
CD4^+ depletion, control [2, 4]: 72 SFC/10^6
CD8^+ Depletion, control [2, 4]: 72 SFC/10^6

TLDEMRHFY [Epitope 8]
CD8^+ T cell IFN-γ response in ICS [1]: equal or more CD8^+ IFN-γ than the parent peptide pool

TSNNEVVVKEEYKDE [Ap10-13]
IFN-γ ELISpot activity of individual 15-mer peptide (PBMC; Volunteer 001): 250 SFC/10^6
IFN-γ ELISpot activity of individual 15-mer peptide (PBMC; Volunteer 012): 233 SFC/10^6
% change of ELISpot activity, CD4 dep vs control ([3]; V001): +148%
% change of ELISpot activity, CD8 dep vs control ([3]; V001): −88%
ELISpot IFN-γ activity, CD4 dep ([3]; V001): 252
ELISpot IFN-γ activity, CD8 dep ([3]; V001): 13
ELISpot IFN-γ activity, Control dep ([3]; V001): 103
% change of ELISpot activity, CD4 dep vs control ([3]; V012): +14%
% change of ELISpot activity, CD8 dep vs control ([3]; V012): −100%
ELISpot IFN-γ activity, CD4 dep ([3]; V012): 90
ELISpot IFN-γ activity, CD8 dep ([3]; V012): 0
ELISpot IFN-γ activity, Control dep ([3]; V012): 79
